Where “and” joins values, the source holds several entries; their conditions need not be identical. Equal entries are not always repeated.
Columns and labels:
[1] = molecular target: MAPK14 (human) (UniProt Q16539); experiment: Inhibition of MAPK14 Kinase Activity
[2] = molecular target: MAPK14 (human) (UniProt Q16539); experiment: Assessment of Phosphorylation of MAPK14 in HeLa Cell Line

Chain of MAPK14 (human) (Q16539 whole entry, looked up): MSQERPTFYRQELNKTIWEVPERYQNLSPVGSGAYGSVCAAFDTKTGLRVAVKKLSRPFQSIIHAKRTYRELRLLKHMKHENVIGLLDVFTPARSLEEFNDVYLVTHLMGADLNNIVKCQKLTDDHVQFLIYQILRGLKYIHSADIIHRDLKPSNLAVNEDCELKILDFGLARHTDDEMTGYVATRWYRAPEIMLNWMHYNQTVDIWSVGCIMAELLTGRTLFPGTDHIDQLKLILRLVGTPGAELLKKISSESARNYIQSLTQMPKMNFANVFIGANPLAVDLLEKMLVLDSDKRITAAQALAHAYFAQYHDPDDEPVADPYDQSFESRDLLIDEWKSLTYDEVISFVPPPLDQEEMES

| SMILES | IC50 [1] | IC50 [2] |
| --- | --- | --- |
| COCC[C@@H](C)Nc1nc2ccc(-c3nc(C(C)(C)CO)[nH]c3-c3ccc(F)cc3F)nc2o1 | < 50 nM | < 50 nM |
| CCOC[C@H](C)Nc1nc2ccc(-c3nc(C4(CO)CC4)[nH]c3-c3ccc(F)cc3F)nc2o1 | < 50 nM | < 50 nM |
| COCC[C@H](C)Nc1nc2ccc(-c3nc(C4(C)COC4)[nH]c3-c3ccc(F)cc3F)nc2o1 | < 50 nM | < 50 nM |

Next, values leading:

| IC50 [1] | IC50 [2] | SMILES |
| --- | --- | --- |
| < 50 nM | < 50 nM | COCC[C@H](C)Nc1nc2ccc(-c3nc(C4CC4)[nH]c3-c3ccc(F)cc3F)nc2o1 |
| < 50 nM | 1.6 nM and < 50 nM | COCC[C@H](C)Nc1nc2ccc(-c3nc(C(C)(C)CO)[nH]c3-c3ccc(F)cc3F)nc2o1 |

Source: the Kinase Knowledgebase extract (Sharma et al. 2016)
